Entries after “also recorded” stand apart in the source; their conditions may differ.
Columns and labels:
Type in all cases: cell-based, C57Bl/6 mice
[1] = tested on: small intestine-derived organoids; assay: Expression of cell proliferation marker Ki-67 by immunofluorescence; settings: 1 μM SAG culture medium; 0, 24 and 48 hours after completion of culture; vs control group; FIG. 3
Procedure: (§1) Specifically, the organoids were fixed with 4% PFA, and 0.1% Triton X-100 in PBS was used to increase a permeability of the organoids. Subsequently, 3% BSA and 0.1% Triton X-100 were placed in a solution diluted in PBS for 1 hour to block a membrane of the organoids, and incubated with primary antibodies (anti-hTERT (ab32020, abcam), anti-Ki67 (ab16667, abcam), anti-Green Fluorescent Protein (GFP-1020, aveslabs), anti-Dclk1 (ab31704, abcam), anti-UEA 1 (RL-1062-2, Vector Laboratories)) at 4° C. for 1 day. After washing with PBS three times for 10 minutes at room temperature, incubation was performed with fluorescent secondary antibodies corresponding to each primary antibody for 2 hours. After washing gain with PBS three times for 10 minutes at room temperature, the organoid nuclei were stained with 4′, 6-diamidino-2-phenylindole, dihydrochloride (DAPI) for 5 minutes at room temperature. In order to confirm the radiation resistance of reserve stem cell-derived organoids prepared in Example 1, the formation of small intestinal crypts and the expression of a cell proliferation marker Ki-67 were confirmed after radiation expose. Specifically, 3 μM CHIR99021 and 1 mM Valproic acid were added to advanced DMEM F/12 medium supplemented with HEPES, glutamax, N-acetylcysteine, N2, B-27, R-spodin, noggin, and EGF. […]

[2] = tested on: small intestine-derived organoids; assay: Radiation resistance: formation of small intestinal crypts after X-ray irradiation; settings: FIG. 2
Procedure: In order to confirm the radiation resistance of reserve stem cell-derived organoids prepared in Example 1, the formation of small intestinal crypts and the expression of a cell proliferation marker Ki-67 were confirmed after radiation expose. Specifically, 3 μM CHIR99021 and 1 mM Valproic acid were added to advanced DMEM F/12 medium supplemented with HEPES, glutamax, N-acetylcysteine, N2, B-27, R-spodin, noggin, and EGF. Thereafter, the organoids prepared in Example 1-1 were inoculated and cultured for 6 days, and then cultured for 3 days each under the conditions shown in the table below. [table] Then, the organoids cultured under each culture condition were irradiated once with 6 Gy of X-ray using a radiation irradiator (rs-320), and the formation of small intestinal crypts was confirmed after 72 hours.

[3] = tested on: small intestine-derived organoids; assay: Immunofluorescence of reserve stem cell marker TERT in SAG-treated organoids; settings: 1 μM SAG after 3 μM CHIR99021 + 1 mM valproic acid; over time after incubation; FIG. 1
Procedure: To prepare small intestine-derived organoids, small intestine tissue was isolated from 4 to 8 week-old C57Bl/6 mice and perfused with PBS. The tissue was cut into pieces of 2 to 4 mm in size, placed in PBS, and washed clearly about 10 times. Then, the tissue was placed in PBS containing 200 mM EDTA, and incubated at 4° C. for 1 hour with shaking. Thereafter, the cells detached from the tissue were passed through a 70 um cell strainer, and centrifuged at 200 g. Organoids were prepared by mixing Matrigel in a 1:1 volume ratio with a culture medium containing settled small intestinal crypts and then performing three-dimensional culture.
The medium was prepared by adding a 10 mM HEPES buffer, 1X glutamax, 1 mM N-acetylcysteine, 1 volume of N2, 2 volumes of B-27, 20 volumes of RSPO (R-spodin), 10 volumes of noggin per 100 volumes of total medium, and 50 ng/ml of EGF to advanced DMEM F/12 medium (Gibco™, Cat. No 12634010) as a basic medium for small intestine organoids.
Subsequently, 10 μM Y-27632 was added to the medium, and the organoids prepared in Example 1-1 were inoculated and cultured for 3 days. […]

[4] = tested on: small intestinal organoids; assay: Differentiation potential: Dclk1 (tuft cells) and UEA-1 (goblet cells) immunofluorescence; settings: culture medium comprising SAG vs control group not comprising SAG; FIG. 4
Procedure: Subsequently, 10 μM Y-27632 was added to the medium, and the organoids prepared in Example 1-1 were inoculated and cultured for 3 days. Then, 3 μM CHIR99021 (Sigma-Aldrich, Cat. No SML1046-5 MG) and 1 mM valproic acid (Sigma-Aldrich, Cat. No P4543-10G) were added and incubated for 4 days at 37° C. in a 5% CO2 incubator, followed by treatment with 1 μM SAG (Abcam, Cat. No ab142160) and incubation to culture the reserve stem cell-induced organoids.
as §1, with “temperature.” for “temperature. In order to confirm the radiation resistance of reserve stem cell-derived organoids prepared in Example 1, the formation of small intestinal crypts and the expression of a cell proliferation marker Ki-67 were confirmed after radiation expose. Specifically, 3 μM CHIR99021 and 1 mM Valproic acid were added to advanced DMEM F/12 medium supplemented with HEPES, glutamax, N-acetylcysteine, N2, B-27, R-spodin, noggin, and EGF.”

CNC1CCC(N(Cc2cccc(-c3ccncc3)c2)C(=O)c2sc3ccccc3c2Cl)CC1 (stereo not drawn) [SAG, smoothened receptor agonist (SAG)]
expression of cell proliferation marker Ki-67 [1]: expressed at a significantly higher level than a control group at each time point
formation of small intestinal crypts ([2]; 1 μM SAG + 3 μM CHIR99021 + 1 mM valproic acid, 3 days, 6 Gy X-ray once, after 72 hours, vs control groups 1 and 2): significantly better formation of small intestinal crypts compared to the other control groups
radiation resistance ([2]; 1 μM SAG, 6 Gy X-ray, vs control groups): had resistance to radiation; also recorded: significantly higher radiation resistance than the other control groups
activity of TERT (reserve stem cell marker) [3]: significantly increased over time
Dclk1 (tuft cells) marker [4]: significantly increased compared to the control group
UEA-1 (goblet cells) marker [4]: significantly increased compared to the control group
